USH1942H, “Herbicidal 3-(pyrazolylphenyl)propanoic acids and derivatives” (FMC Corporation, priority 1998, dated 2001)

Legend:
Blackgrass [1] = assay: post-emergence herbicidal activity, blackgrass; assay type: in vivo, Aloepecurus myosuroides; conditions: postemergence, 1.0 kg/ha
Wheat [2] = assay: post-emergence herbicidal activity, wheat; assay type: in vivo, Triticum aestivum var. Lew; conditions: postemergence, 1.0 kg/ha
Corn [3] = assay: post-emergence herbicidal activity, corn; assay type: in vivo, Zea mays var. Pioneer 3732; conditions: postemergence, 1.0 kg/ha
Velvetleaf = assay: pre-emergence herbicidal activity, velvetleaf; assay type: in vivo, Abutilon theophrasti; conditions: preemergence, 1.0 kg/ha
Source text: (§1) The test plants included soybean (Glycine max var. Winchester), field corn (Zea mays var. Pioneer 3732), wheat (Triticum aestivum var. Lew), morning glory (Ipomea lacunosa or Ipomea hederacea), velvetleaf (Abutilon theophrasti), green foxtail (Setaria viridis), Johnsongrass (Sorghum halepense), blackgrass (Aloepecurus myosuroides), common chickweed (Stellaria media), and common cocklebur (Xanthium strumarium L.).
(§2) For pre-emergence testing, two disposable fiber flats (8 cm×15 cm×25 cm) for each rate of application of each candidate herbicide were filled to an approximate depth of 6.5 cm with steam-sterilized sandy loam soil. The soil was leveled and impressed with a template to provide five evenly spaced furrows 13 cm long and 0.5 cm deep in each flat. Seeds of soybean, wheat, corn, green foxtail, and johnsongrass were planted in the furrows of the first flat, and seeds of velvetleaf, morningglory, common chickweed, cocklebur, and blackgrass were planted in the furrows of the second flat. […]
(§3) The pre-emergence flats were initially subjected to a light water spray. […] After 12-17 days, the plants were examined, and the phytotoxicity data were recorded. […]
(§4) Phytotoxicity data are taken as percent control. Percent control is determined by a method similar to the 0 to 100 rating system disclosed in "Research Methods in Weed Science," 2nd ed., B. Truelove, Ed. […]

Chickweed [4] = assay: pre-emergence herbicidal activity, chickweed; assay type: in vivo, Stellaria media; conditions: preemergence, 1.0 kg/ha
Source text: as §1, §2, §3, §4

Wheat [5] = assay: pre-emergence herbicidal activity, wheat; assay type: in vivo, Triticum aestivum var. Lew; conditions: preemergence, 1.0 kg/ha
Source text: as §1, §2, §3, §4

Corn [6] = assay: pre-emergence herbicidal activity, corn; assay type: in vivo, Zea mays var. Pioneer 3732; conditions: preemergence, 1.0 kg/ha
Source text: as §1, §2, §3, §4

Morningglory = assay: pre-emergence herbicidal activity, morningglory; assay type: in vivo, Ipomea lacunosa or Ipomea hederacea; conditions: preemergence, 1.0 kg/ha
Source text: as §1, §2, §3, §4

Cocklebur [7] = assay: pre-emergence herbicidal activity, cocklebur; assay type: in vivo, Xanthium strumarium L.; conditions: preemergence, 1.0 kg/ha
Source text: as §1, §2, §3, §4

Johnsongrass [8] = assay: pre-emergence herbicidal activity, johnsongrass; assay type: in vivo, Sorghum halepense; conditions: preemergence, 1.0 kg/ha
Source text: as §1, §2, §3, §4

Soybean [9] = assay: pre-emergence herbicidal activity, soybean; assay type: in vivo, Glycine max var. Winchester; conditions: preemergence, 1.0 kg/ha
Source text: as §1, §2, §3, §4

Green foxtail [10] = assay: pre-emergence herbicidal activity, green foxtail; assay type: in vivo, Setaria viridis; conditions: preemergence, 1.0 kg/ha
Source text: as §1, §2, §3, §4

Chickweed [11] = assay: post-emergence herbicidal activity, chickweed; assay type: in vivo, Stellaria media; conditions: postemergence, 1.0 kg/ha
Soybean [12] = assay: post-emergence herbicidal activity, soybean; assay type: in vivo, Glycine max var. Winchester; conditions: postemergence, 1.0 kg/ha
Johnsongrass [13] = assay: post-emergence herbicidal activity, johnsongrass; assay type: in vivo, Sorghum halepense; conditions: postemergence, 1.0 kg/ha
Blackgrass [14] = assay: pre-emergence herbicidal activity, blackgrass; assay type: in vivo, Aloepecurus myosuroides; conditions: preemergence, 1.0 kg/ha
Source text: as §1, §2, §3, §4

Green foxtail [15] = assay: post-emergence herbicidal activity, green foxtail; assay type: in vivo, Setaria viridis; conditions: postemergence, 1.0 kg/ha
Cocklebur [16] = assay: post-emergence herbicidal activity, cocklebur; assay type: in vivo, Xanthium strumarium L.; conditions: postemergence, 1.0 kg/ha

| Compound | % CONTROL (Blackgrass [1]) | % CONTROL (Wheat [2]) | % CONTROL (Corn [3]) | % CONTROL (Velvetleaf) | % CONTROL (Chickweed [4]) | % CONTROL (Wheat [5]) | % CONTROL (Corn [6]) | % CONTROL (Morningglory) | % CONTROL (Cocklebur [7]) | % CONTROL (Johnsongrass [8]) | % CONTROL (Soybean [9]) | % CONTROL (Green foxtail [10]) | % CONTROL (Chickweed [11]) | % CONTROL (Soybean [12]) | % CONTROL (Johnsongrass [13]) | % CONTROL (Blackgrass [14]) | % CONTROL (Green foxtail [15]) | % CONTROL (Cocklebur [16]) |
| --- | --- | --- | --- | --- | --- | --- | --- | --- | --- | --- | --- | --- | --- | --- | --- | --- | --- | --- |
| CCOC(=O)C(Cl)Cc1cc(-c2nn(C)c(OC(F)F)c2Cl)c(Cl)cc1Cl (stereo not drawn) [Compound 1] | 40% | 30% | 60% | 100% | 100% | 20% | 40% | 100% | 100% | 80% | 100% | 100% | 100% | 100% | 100% | 40% | 100% | 100% |
| CCOC(=O)C(Cl)Cc1cc(-c2nn(C)c(OC(F)F)c2Cl)c(F)cc1Cl (stereo not drawn) [Compound 2, Ethyl 2-chloro-3-[2-chloro-4-fluoro-5-(4-chloro-5-difluoromethoxy-1-methylpyrazol-3-yl)phenyl]propanoate] | 60% | 55% | 90% | 100% | 100% | 30% | 10% | 100% | 100% | 70% | 90% | 100% | 100% | 100% | 90% | 50% | 100% | 100% |
